Data reported in paper PMC8219695 (Nature Communications, 2021).
Values joined by “and” are separate entries in the source; they are usually repeats but may differ in a detail not shown here. Equal entries are not always repeated.

How the values were obtained:
[1] = molecular target: T1, mMOR (Mus musculus, UniProt P42866); test: [125I]BNtxA radioligand competition binding, mouse MOR
T1 construct: signal peptide (heterologous, not specified) (N); expressed in transfected cells; pcDNA3.1(+) construct made in house

[2] = molecular target: T2, mKOR (Mus musculus, UniProt P33534); test: [125I]BNtxA radioligand competition binding, mouse KOR
T2 construct: expressed in transfected cells; membranes

[3] = molecular target: T3, mDOR (Mus musculus, UniProt P32300); test: [125I]BNtxA radioligand competition binding, mouse DOR
T3 construct: expressed in transfected cells

[4] = molecular target: T1, mMOR; test: CAMYEL BRET cAMP agonist assay at mMOR; assay type: cell-based; conditions: for cAMP %: single replicates, source data Fig 6b
[5] = molecular target: T4, hMOR (Homo sapiens, UniProt P35372); test: CAMYEL BRET cAMP agonist assay at hMOR; assay type: cell-based; conditions: for cAMP %: hMOR, single replicates, source data Fig 6c
T4 construct: expressed in transfected cells; plasmid a gift from Dr. Nevin Lambert

[6] = molecular target: T3, mDOR; test: CAMYEL BRET cAMP agonist assay at mDOR; assay type: cell-based; conditions: for Agonist activity of 7OH analogs at mDOR: single replicate values, Supplementary Figure 7B, listed as 7-OH-Mitragynine
[7] = molecular target: hDOR (Homo sapiens, UniProt P41143); test: CAMYEL BRET cAMP agonist assay at hDOR; assay type: cell-based; conditions: for Agonist activity of 7OH analogs at hDOR: single replicate values, Supplementary Figure 7A, listed as 7-OH-Mitragynine
[8] = molecular target: T5, rKOR (Rattus norvegicus, UniProt P34975); test: CAMYEL BRET cAMP agonist assay at rKOR; assay type: cell-based; conditions: individual replicates, Supplementary Figure 8B source data
T5 construct: expressed in transfected cells

[9] = molecular target: hKOR (Homo sapiens, UniProt P41145); test: CAMYEL BRET cAMP agonist assay at hKOR; assay type: cell-based; conditions: individual replicates, Supplementary Figure 8A source data
[10] = tested on: CD1 mice; test: Tail-flick antinociception in CD1 mice; assay type: in vivo, mouse; conditions: Fig 9b; 7OH 2 mg/kg, sc; individual animals

## CC[C@@H]1CN2CC[C@@]3(O)C(=Nc4cccc(OC)c43)[C@@H]2C[C@@H]1/C(=C\OC)C(=O)OC [7OH, 7-Hydroxymitragynine, reference compound]
[1]
  Ki: 0.0215 ± 0.0008 µM
[2]
  Ki: 0.119 ± 0.0021 µM
[3]
  Ki: 0.0885 ± 0.0099 µM
[4]
  EC50: 0.048 µM
[4]; Log[drug] (M) -5, mMOR
  cAMP %: 54.7418% and 39.306% and 62.8715% and 90.7674% and 85.3805% and 81.3701% and 80.1578% and 78.2326% and 79.4832%
[4]; Log[drug] (M) -6, mMOR
  cAMP %: 51.4904% and 44.0439% and 41.1377% and 71.7778% and 87.0279% and 84.9352% and 65.6946% and 62.0616% and 68.2077%
[4]; Log[drug] (M) -7, mMOR
  cAMP %: 31.3362% and 29.5321% and 20.0587% and 64.2387% and 61.8389% and 74.7851% and 53.7172% and 48.585% and 45.7301%
[4]; Log[drug] (M) -8, mMOR
  cAMP %: 9.25% and 16.4555% and 10.0292% and 22.5933% and 31.4368% and 25.3107% and 17.3146% and 8.444% and 13.6716%
[4]; Log[drug] (M) -9, mMOR
  cAMP %: 6.25% and 5.067% and 3.569% and -0.5857% and 7.672% and -7.0867% and 8.23% and -1.022% and 10.8029%
[4]; Log[drug] (M) -10, mMOR
  cAMP %: 12.6265% and -11.9755% and 9.001% and 8.7384% and -5.2017% and 8.648% and -2.705% and -3.188% and 5.894%
[4]; Log[drug] (M) -11, mMOR
  cAMP %: -0.9102% and -0.5945% and 1.505% and 10.3177% and 11.6% and 5.328% and 6.124% and -1.189% and -0.6754%
[4]; Log[drug] (M) -13, mMOR, cAMP inhibition as % of DAMGO
  cAMP %: 3.306% and 2.892% and -4.359% and 9.797% and 10.0834% and 11.919% and 5.129% and 4.129% and 1.2769%
[4]; mMOR, maximal inhibitory effect on cAMP levels relative to DAMGO
  Emax: 70%
[5]
  Emax: 96%
[5]; Log[drug] (M) -5
  cAMP %: 88.4213% and 90.605% and 95.9962% and 96.6598% and 92.1499% and 89.6322% and 104.97% and 106.65% and 107.127%
[5]; Log[drug] (M) -6
  cAMP %: 85.9913% and 88.2699% and 100.077% and 95.6224% and 98.6028% and 95.7246% and 101.519% and 93.2699% and 100.898%
[5]; Log[drug] (M) -7
  cAMP %: 74.1823% and 79.6011% and 86.6364% and 71.3053% and 75.9463% and 78.9671% and 86.5888% and 87.8073% and 87.9307%
[5]; Log[drug] (M) -8
  cAMP %: 47.9539% and 40.673% and 45.9228% and 28.5173% and 37.309% and 37.8989% and 36.8098% and 40.2437% and 43.4509%
[5]; Log[drug] (M) -9
  cAMP %: -5.159% and -0.2818% and 15.9197% and 2.836% and 1.425% and -4.261% and 10.2218% and -0.8382% and 19.3398%
[5]; Log[drug] (M) -10
  cAMP %: 2.406% and -6.901% and 4.4945% and -1.371% and 5.724% and -0.06095% and -1.689% and 0.384% and 1.305%
[5]; Log[drug] (M) -11
  cAMP %: 10.0741% and 2.867% and -1.276% and 14.2755% and -12.2251% and 5.789% and 12.061% and -4.689% and 0.8824%
[5]; Log[drug] (M) -13, cAMP inhibition as % of DAMGO
  cAMP %: 3.998% and -9.01% and 9.508% and 14.9262% and 7.334% and 14.594% and 2.431% and 9.511% and 1.874%
[6]
  EC50: 0.0714 µM
[6]; Log[drug] (M) -5
  Agonist activity of 7OH analogs at mDOR: 79.5205 and 79.1947 and 68.9488 and 85.2247 and 78.2035 and 78.3957 and 62.0758 and 81.7668 and 72.4775
[6]; Log[drug] (M) -6
  Agonist activity of 7OH analogs at mDOR: 49.9165 and 58.342 and 65.4236 and 68.6722 and 65.6062 and 68.2461 and 72.0352 and 62.2673 and 61.4936
[6]; Log[drug] (M) -7
  Agonist activity of 7OH analogs at mDOR: 29.0999 and 46.5592 and 41.3409 and 38.1857 and 36.2209 and 62.8298 and 64.7985 and 75.1004
[6]; Log[drug] (M) -8
  Agonist activity of 7OH analogs at mDOR: 17.0946 and 20.9939 and 16.1181 and 8.745 and 16.0659 and 5.863 and 49.6952 and 40.7941 and 63.5779
[6]; Log[drug] (M) -9
  Agonist activity of 7OH analogs at mDOR: 27.3274 and 1.192 and 34.2965 and 12.9525 and -4.552 and -8.401 and 25.2583 and 24.354 and 24.6431
[6]; Log[drug] (M) -10
  Agonist activity of 7OH analogs at mDOR: 39.904 and 39.7156 and 42.1881 and 15.8228 and 9.006 and 14.7091 and 41.1226 and 23.2827 and 29.2586
[6]; Log[drug] (M) -11
  Agonist activity of 7OH analogs at mDOR: 3.455 and 6.714 and 6.951 and -3.421 and 2.4315 and 1.875 and 9.138 and 13.5385
[6]; Log[drug] (M) -13
  Agonist activity of 7OH analogs at mDOR: 3.619 and 5.368 and -8.987 and -7.007 and 2.297 and 7.3103 and -1.541 and -0.9135 and 2.455
[6]; read-out: Emax
  Emax: 72%
[7]
  EC50: 0.0999 µM
[7]; Log[drug] (M) -5
  Agonist activity of 7OH analogs at hDOR: 59.4902 and 54.7394 and 48.113 and 45.4731 and 42.3531 and 41.8085 and 33.7355 and 48.8189 and 36.1755
[7]; Log[drug] (M) -6
  Agonist activity of 7OH analogs at hDOR: 47.0072 and 54.0661 and 57.5431 and 39.2612 and 45.3193 and 38.3255 and 32.249 and 29.9213 and 37.5943
[7]; Log[drug] (M) -7
  Agonist activity of 7OH analogs at hDOR: 27.5943 and 29.9093 and 13.7827 and 13.3703 and 19.5028 and 21.8057 and 32.1543 and 37.3674 and 42.4632
[7]; Log[drug] (M) -8
  Agonist activity of 7OH analogs at hDOR: 27.0326 and 26.8622 and 6.318 and -2.952 and 5.202 and 3.255 and 18.5072 and 16.8026 and 16.758
[7]; Log[drug] (M) -9
  Agonist activity of 7OH analogs at hDOR: 15.8661 and 3.122 and 22.479 and 1.833 and -4.308 and 2.475 and 15.4988 and 8.368 and 7.075
[7]; Log[drug] (M) -10
  Agonist activity of 7OH analogs at hDOR: 31.7942 and 19.5741 and 16.1123 and 10.5331 and 9.484 and 5.51 and 21.6698
[7]; Log[drug] (M) -11
  Agonist activity of 7OH analogs at hDOR: 10.918 and -1.6818 and 2.572 and 2.605 and 5.418 and 12.5121 and 11.3973 and 0.7522 and -0.994
[7]; Log[drug] (M) -13
  Agonist activity of 7OH analogs at hDOR: 3.025 and -6.776 and 3.7513 and 10.1702 and 6.174 and 15.4423 and -4.715 and 5.3718 and -0.6565
[7]; read-out: Emax
  Emax: 45%
[8]; Log [drug](M) -5
  Agonist activity of 7OH analogs at rKOR: 51.4853 and 69.9742 and 40.1102 and 17.9877 and 23.0672 and 30.6086 and 23.1026 and 36.1112 and 26.5447
[8]; Log [drug](M) -6
  Agonist activity of 7OH analogs at rKOR: 50.3386 and 47.4584 and 37.1736 and 16.4913 and 27.1082 and 15.3746 and 22.6508 and 23.988 and 23.2951
[8]; Log [drug](M) -7
  Agonist activity of 7OH analogs at rKOR: 32.3706 and 5.504 and 6.859 and 19.3779 and 10.5115 and 15.4551 and 8.6 and 9.151 and 16.9313
[8]; Log [drug](M) -8
  Agonist activity of 7OH analogs at rKOR: 4.174 and 5.52 and 21.8967 and -3.058 and 2.36 and 0.6978 and 14.0563 and 6.31 and 24.1641
[8]; Log [drug](M) -9
  Agonist activity of 7OH analogs at rKOR: 4.922 and -12.3356 and 11.254 and 8.301 and 17.6392 and 14.4513 and 3.607 and 6.21 and -1.551
[8]; Log [drug](M) -10
  Agonist activity of 7OH analogs at rKOR: -1.1625 and -7.143 and 8.305 and 14.5638 and 5.983 and 1.382 and -0.5163 and -2.6368 and 4.024
[8]; Log [drug](M) -11
  Agonist activity of 7OH analogs at rKOR: 3.848 and 0.4662 and 0.6482 and 7.796 and 8.5204 and -1.878 and 0.3369 and -2.372 and 2.035
[8]; Log [drug](M) -13
  Agonist activity of 7OH analogs at rKOR: 5.7561 and 2.46 and -0.5992 and 11.3924 and -1.857 and 11.6902 and 1.603 and -2.596 and 3.807
[9]; Log [drug](M) -5
  Agonist activity of 7OH analogs at hKOR: 25.1107 and 37.2516 and 25.09 and 18.6326 and 7.697 and 7.056 and 12.3573 and 15.4119 and 15.9917
[9]; Log [drug](M) -6
  Agonist activity of 7OH analogs at hKOR: 26.3842 and 27.9158 and 17.2556 and 19.1124 and 15.0208 and 6.652 and 13.1771 and 3.299 and 8.814
[9]; Log [drug](M) -7
  Agonist activity of 7OH analogs at hKOR: 10.6234 and 4.588 and 26.8644 and 8.68 and -0.2355 and 14.6509 and 3.557 and -6.963 and -8.284
[9]; Log [drug](M) -8
  Agonist activity of 7OH analogs at hKOR: 5.978 and -10.4494 and 7.122 and 8.973 and 3.679 and 0.5669 and 3.537 and -8.354 and -5.217
[9]; Log [drug](M) -9
  Agonist activity of 7OH analogs at hKOR: 4.358 and -4.206 and -18.6896 and -3.311 and 1.614 and -2.537 and 1.131 and 5.305 and 46.2002
[9]; Log [drug](M) -10
  Agonist activity of 7OH analogs at hKOR: -9.33 and 0.6018 and -2.152 and 0.113 and -1.397 and 4.8046 and -5.84 and -6.29 and 4.4418
[9]; Log [drug](M) -11
  Agonist activity of 7OH analogs at hKOR: 2.533 and -16.0954 and -7.281 and -0.5606 and -1.386 and 5.188 and 3.6558 and -6.195 and -4.675
[9]; Log [drug](M) -13
  Agonist activity of 7OH analogs at hKOR: -2.907 and -1.906 and 4.813 and 2.257 and -10 and 7.743 and -0.9804 and -0.456 and 1.436
[10]
  Tail flick (%MPE): 100.00 %MPE (8×) and 57.97 %MPE and 52.05 %MPE
  Tail flick latency: 10 (8×) and 7.1 and 6.5
